Test results: ChEMBL document CHEMBL5537141, “Targeting PIM kinases in cancer therapy: An update on pharmacological small-molecule inhibitors” (Eur J Med Chem, 2024)

Test: Metabolic stability in human liver microsomes assessed as half life measured upto 60 mins by LC/MS-MS analysis
Type: ADME, Microsome

| SMILES | half-life |
| --- | --- |
| C[C@@H]1C[C@H](N)C[C@H](c2ccncc2NC(=O)c2ccc(F)c(-c3ccccc3F)n2)C1 | > 180 min |
| C[C@@H]1C[C@H](N)CN(c2ccncc2NC(=O)c2ccc(F)c(-c3ccccc3F)n2)C1 | 13 min |
| C[C@@H]1C[C@H](N)CN(c2ccncc2NC(=O)c2ccc(F)c(-c3c(F)cccc3F)n2)C1 | 40 min |
